According to patent publication US6238875A, “Diagnostic methods useful in the characterization of lymphoproliferative disease characterized by increased EPR-1” (The Scripps Research Institute, priority 1994, dated 2001):

System: T lymphocytes
Assay: Intracellular Ca2+ signalling in single adherent T lymphocytes loaded with Indo-1 (real-time fluorescence)
Assay type: cell-based, human
Details: 7 μM ionomycin; Indo-1-loaded T cells; data not shown
Protocol: Early events of intracellular Ca^2+ signalling after EPR-1 occupancy were characterized in real-time fluorescence measurements at the single cell level (Altieri, et al., Biochem. J. 288: 465 (1992)). Freshly isolated T lymphocytes were attached onto Cell-Tak-(Biopolymers, Farmington, Conn.)-coated optical grade glass coverslips (22 mm^2 diameter and <[…] thickness), and loaded intracellularly with 1 μM of the Ca^2+ -sensitive fluorescent dye Indo-1/AM (Grynkiewicz, et al., J. Biol. Chem. 260: 3440 (1985)) (Calbiochem) in 145 mM NaCl, 5 mM KCl, 1 mM Na2 HPO4, 2.5 mM CaCl2, 10 mM glucose, 25 mM HEPES, 0.5 mM MgSO4 for 45 minutes at 37° C. Cells were gently washed in the same loading buffer, and analyzed in real time fluorescence measurements in digitalized imaging using the interactive laser cytometer ACAS 470, as described (Altieri, et al., Id. (1992)). […] After 125 seconds from the addition of the primary mAb, 50 μg/ml aliquots of goat anti-mouse F(ab')2 fragments were added as a cross-linking reagent, and fluorescence changes in the target cells were monitored continuously during a 3-minute interval. Changes in cytosolic free [Ca^2+ ]i under the various conditions tested are expressed as ratio of Detector 1 (free Indo-1, 485 nm wavelength)/Detector 2 (Indo-1:Ca^2+ complex, 405 nm wavelength).

C[C@H](CCC(=O)O)C[C@H](C)C[C@H](C)C(=O)/C=C(\O)[C@H](C)C[C@H](C)C/C=C/[C@@H](C)[C@@H](O)[C@@H](C)[C@@H](O)C[C@@H]1CC[C@@](C)([C@H]2CC[C@@](C)([C@@H](C)O)O2)O1 [ionomycin]
cytosolic free [Ca2+]i response: large and sustained increase
